The values below come from patent US20110060056A1, “Inhibition of the Survival of Gastric Cancer by Cyclohexenone Compounds from Antrodia Camphorata” (GOLDEN BIOTECHNOLOGY CORPORATION, priority 2009, published 2011).

This assay relates to gastric cancer cell line TSGH-9201. As to the kind of experiment: In vitro survival assay (MTT) for anti-gastric cancer effects. It is filed as cell-based. The note with it: Homo sapiens, TSGH-9201 cells, 48 hours treatment, read-out: IC50 (half inhibition concentration), survival of gastric cancer cells. The protocol: Inhibiting effects of gastric cancer cells by cyclohexenone compounds of Antrodia camphorata from example 1 were assessed according to the anticancer-drug screening model of National Cancer Institute (NCI). The compound 4-hydroxy-2,3-dimethoxy-6-methyl-5-(3,7,11-trimethyl-dodeca-2,6,10-trienyl)-cyclohex-2-enone from example 1 was added into the culture media of gastric cancer cell line TSGH-9201 to determine the survival rates. Survival of cell was analyzed using MTT assay. TSGH-9201 cell line was a human gastric carcinoma cell line.
MTT assay is commonly used to analyze cell proliferation, survival rate of viable cells and cytotoxicity. MTT (3[4,5-dimethylthiazol-2-yl]-2,5-diphenyltetrazolium bromide) is a yellow dye which can be converted to water-insoluble purple formazan on the reductive cleavage of its tetrazolium ring by the succinate tetrazolium reductase in mitochondria of cells. The amount of formazan produced is used to detect the number of viable cells and calculate the survival rates.
The TSGH-9201 cells were cultivated in DMEM medium supplemented with 10% fetal bovine serum, 100 U/ml of Penicillin and 100 μg/ml of Streptomycin at 37° C., 5% CO2 for 24 hours. Proliferated cells were washed once with PBS, treated with 1× trypsin-EDTA, and centrifuged at 1200 rpm for 5 min. […] The absorbances were measured at 570 nm with an ELISA Reader to determine the survival rates.

Turning to `COC1=C(OC)C(O)C(C/C=C(\C)CC/C=C(\C)CCC=C(C)C)C(C)C1=O` (stereo not shown) [formula 2, 4-hydroxy-2,3-dimethoxy-6-methyl-5-(3,7,11-trimethyl-dodeca-2,6,10-trienyl)-cyclohex-2-enone], the IC50 came to 1.32 µg/mL.
